Tested on: LC3
Assay: Autophagy activity in cultured cells by immunoblotting, concentration series (Experimental Example 2)
Format: cell-based, human
Settings: HeLa cells; 1, 2, 5, 10 and 20 μM, 24 hours; immunoblot, FIG. 3
Description: In order to evaluate the autophagy activity efficacy by the compounds (Examples 1-25), HeLa cell line, which is a cell line derived from a cervical cancer patient, was cultured using a DMEM medium containing 10% FBS and 1% streptomycin/penicillin in an incubator with 5% carbon dioxide. As the representative compounds among the present compounds, the compounds of Examples 1, 2, 3, 5, 6, 7, 8, 9, 12 and 13 (Example 5 (YTK-1005), Example 1 (YTK-1105), Example 6 (YTK-1205), Example 7 (YTK-1305), Example 2 (YTK-2205), Example 3 (YTK-3305), Example 8 (YTK-105), Example 9 (YTK-205), Example 14 (YTK-1108), Example 12 (YT 5-7), Example 13 (YT 5-8)), Example 20 (ATB10041), Example 21 (ATB10042), Example 22 (ATB10043), Example 23 (ATB10044), Example 24 (ATB10045), and Example 25 (ATB10046)) were selected. In order to measure autophagy activity according to the treatment with these selected representative compounds, the respective cells were dispensed into 6 well plates. Additional cultures were performed for 24 hours so that the cells were completely attached to the surface of the plate. To find the concentration at which the respective compounds could increase the phenomenon of autophagy, the test compounds were diluted at 1, 2, 5, 10 and 20 μM and treated. After treatment with the respective compounds, the cells were cultured again in a cell incubator for 24 hours, and then the cells were collected. To extract proteins from the collected cells, 100 ul of lysis buffer (20 mM Tris (pH 7.4), 150 mM NaCl, 1% Triton X-100, 2 mM NaF, 2 mM EDTA, 2 mM beta-glycerophosphate, 5 mM sodium orthovanadate, 1 mM PMSF, leupeptin, aprotinin) was injected into each sample, and cells were lysed. Based on the measured total protein concentration, a sample buffer was added to each sample and allowed to react at 100° C. for 5 minutes. 5 ul was taken from the samples after the reaction, and dispensed into each well of acrylamide gel, and then immunoblotting was performed.

Compound | autophagy activity (level of LC3)
OCCNCc1cccc(OCc2ccc(F)cc2)c1 [YT 5-8, 2-((3-((4-fluorobenzyl)oxy)benzyl)amino)ethan-1-ol] | increasing the autophagy activity
OCCNCCNCc1ccc(OCc2ccccc2)c(OCc2ccccc2)c1 [YTK-1108, 2-((2-((3,4-bis(benzyloxy)benzyl)amino)ethyl)amino)ethan-1-ol] | increasing the autophagy activity
OCCNCc1cccc(OCc2ccc(Cl)cc2)c1 [YT 5-7, 2-((3-((4-chlorobenzyl)oxy)benzyl)amino)ethan-1-ol] | increasing the autophagy activity
OCCNCc1ccc(OCCc2ccccc2)c(OCCc2ccccc2)c1 [YTK-2205, 2-((3,4-diphenethoxybenzyl)amino)ethan-1-ol] | increasing the autophagy activity
OCCNCc1ccc(OCc2ccccc2)c(OCCc2ccccc2)c1 [YTK-1205, 2-((4-(benzyloxy)-3-phenethoxybenzyl)amino)ethan-1-ol] | increasing the autophagy activity
OCCNCc1ccc(OCc2ccccc2)c(OCCCc2ccccc2)c1 [YTK-1305, 2-((4-(benzyloxy)-3-(3-phenylpropoxy)benzyl)amino)ethan-1-ol] | increasing the autophagy activity
OCCNCc1ccc(OCCCc2ccccc2)c(OCCCc2ccccc2)c1 [YTK-3305, 2-((3,4-bis(3-phenylpropoxy)benzyl)amino)ethan-1-ol] | increasing the autophagy activity
OCCNCc1ccc(OCc2ccccc2)c(OCc2ccccc2)c1 [YTK-1105, 2-((3,4-bis(benzyloxy)benzyl)amino)ethan-1-ol] | increasing the autophagy activity

Tested on: p62 and LC3
Assay: Autophagy activity by immunofluorescence staining and confocal microscopy (Experimental Example 5)
Format: cell-based, human
Settings: HeLa cells, 5 uM, 24 hours, FIG. 6
Description: In order to confirm the p62 protein activity and the activity level of autophagy phenomenon by the compounds (Examples 1-25), immunofluorescence staining was performed using p62 and LC3 as markers. In order to confirm the p62 activity and the activity level of autophagy phenomenon by new p62 ligands and isomers thereof in cultured cells, HeLa cell line, which is a cell line derived from cervical cancer patient, was treated with the novel p62 ligand compounds (YTK-1205, YTK-1305, YTK-2205, YTK-3305, YTK-105, YTK-205, YT 5-1, YT 9-1, YT 5-2, YT 9-2, YT 8-2, YT 8-1, YTK-107, YTK-207) and cultured. Thereafter, as markers of the autophagy phenomenon, the expression level and location of LC3 puncta and the local co-existence with p62 puncta were observed.
For immunofluorescence staining, a cover glass was placed on a 24-well plate, cells were dispensed, cultured for 24 hours, and then treated with 5 uM of the novel p62 ligands according to the present invention. For the action of the compounds, additional cultures were performed for 24 hours, and then the medium was removed. Cells were fixed using formaldehyde at room temperature. In order to prevent non-specific staining, the cells were allowed to react with a blocking solution at room temperature for 1 hour, and then treated with LC3 antibody diluted at a certain ratio using the blocking solution, and allowed to reacted at room temperature for 1 hour. The antibody-treated cells were washed three times with PBS, and goat-derived secondary antibody was diluted at a certain ratio using the blocking solution, and then allowed to react at room temperature for 30 minutes. The cells were washed again with PBS three times, and for intracellular nuclear staining, the expression level, intracellular puncta formation and intracellular coexistence level of p62 and LC3 were observed through a confocal microscopy after DAPI staining.

Compound | p62 activation and oligomerization, delivery to autophagosome, autophagy activity (p62 and LC3 puncta, local coexistence)
N=C(N)NCCNCc1cccc(OCc2ccccc2)c1 [YTK-107, 1-(2-((3-(benzyloxy)benzyl)amino)ethyl)guanidine] | allow the activation and oligomerization of p62 proteins, and then show the efficacy of delivering them to autophagosome and simultaneously increasing autophagy activity
OCCNCc1ccc(OCCc2ccccc2)c(OCCc2ccccc2)c1 [YTK-2205, 2-((3,4-diphenethoxybenzyl)amino)ethan-1-ol] | allow the activation and oligomerization of p62 proteins, and then show the efficacy of delivering them to autophagosome and simultaneously increasing autophagy activity
OCCNCc1ccc(OCc2ccccc2)c(OCCc2ccccc2)c1 [YTK-1205, 2-((4-(benzyloxy)-3-phenethoxybenzyl)amino)ethan-1-ol] | allow the activation and oligomerization of p62 proteins, and then show the efficacy of delivering them to autophagosome and simultaneously increasing autophagy activity
OCCNCc1ccc(OCc2ccccc2)c(OCCCc2ccccc2)c1 [YTK-1305, 2-((4-(benzyloxy)-3-(3-phenylpropoxy)benzyl)amino)ethan-1-ol] | allow the activation and oligomerization of p62 proteins, and then show the efficacy of delivering them to autophagosome and simultaneously increasing autophagy activity
OCCNCc1ccc(OCc2ccc(Cl)cc2)c(OCc2ccc(Cl)cc2)c1 [YT-5-1, 2-((3,4-bis((4-chlorobenzyl)oxy)benzyl)amino)ethan-1-ol] | allow the activation and oligomerization of p62 proteins, and then show the efficacy of delivering them to autophagosome and simultaneously increasing autophagy activity
OCCNCc1ccc(OCc2ccc(F)cc2)c(OCc2ccc(F)cc2)c1 [YT-5-2, 2-((3,4-bis((4-fluorobenzyl)oxy)benzyl)amino)ethan-1-ol] | allow the activation and oligomerization of p62 proteins, and then show the efficacy of delivering them to autophagosome and simultaneously increasing autophagy activity
OCCNCc1ccc(OCCCc2ccccc2)c(OCCCc2ccccc2)c1 [YTK-3305, 2-((3,4-bis(3-phenylpropoxy)benzyl)amino)ethan-1-ol] | allow the activation and oligomerization of p62 proteins, and then show the efficacy of delivering them to autophagosome and simultaneously increasing autophagy activity
N=C(N)NCCNCc1cccc(OCCc2ccccc2)c1 [YTK-207] | allow the activation and oligomerization of p62 proteins, and then show the efficacy of delivering them to autophagosome and simultaneously increasing autophagy activity

Tested on: LC3
Assay: Autophagy activity in cultured cells by immunoblotting, treatment time (Experimental Example 3)
Format: cell-based, human
Settings: HeLa cells; 5 μM for 1, 3, 6, 12, 24, 48 hours or 10 μM for 24 hours; immunoblot, FIG. 4
Description: In order to investigate the autophagy activity efficacy by the compounds (Examples 1-25), immunoblotting was performed in the same manner as in Experimental Example 2 using LC3 as a marker. As for the difference, in order to evaluate the treatment time required for activation and the activity retention time, 5 μM of the representative compounds selected among the present compounds (Example 5 (YTK-1005), Example 6 (YTK-1205), Example 7 (YTK-1305), Example 2 (YTK-2205), Example 3 (YTK-3305), Example 14 (YTK-1108), Example 8 (YTK-105), Example 9 (YTK-205)) were treated for 1, 3, 6, 12, 24, 48 hours. On the other hand, 10 μM of the representative compounds selected among the present compounds (Example 10 (YT 5-1), Example 11 (YT 5-2), Example 16 (YT 8-8), Example 15 (YT 8-7), Example 17 (YTK-107), Example 18 (YTK-207), Example 20 (ATB10041), Example 21 (ATB10042), Example 22 (ATB10043), Example 23 (ATB10044), Example 24 (ATB10045), Example 25 (ATB10046)) were treated for 24 hours.

Compound | autophagy activity (level of LC3)
N=C(N)NCCNCc1cccc(OCc2ccccc2)c1 [YTK-107, 1-(2-((3-(benzyloxy)benzyl)amino)ethyl)guanidine] | increasing the autophagy activity
OCCNCc1ccc(OCc2ccc(Cl)cc2)c(OCc2ccc(Cl)cc2)c1 [YT-5-1, 2-((3,4-bis((4-chlorobenzyl)oxy)benzyl)amino)ethan-1-ol] | increasing the autophagy activity
OCCNCc1ccc(OCc2ccc(F)cc2)c(OCc2ccc(F)cc2)c1 [YT-5-2, 2-((3,4-bis((4-fluorobenzyl)oxy)benzyl)amino)ethan-1-ol] | increasing the autophagy activity
N=C(N)NCCNCc1cccc(OCCc2ccccc2)c1 [YTK-207] | increasing the autophagy activity

Target: T1, p62 protein (Homo sapiens, UniProt Q13501)
T1 construct: endogenous in cells; host or cells: HEK293 (lysate treated with compounds)
T1 sequence (Q13501 whole entry): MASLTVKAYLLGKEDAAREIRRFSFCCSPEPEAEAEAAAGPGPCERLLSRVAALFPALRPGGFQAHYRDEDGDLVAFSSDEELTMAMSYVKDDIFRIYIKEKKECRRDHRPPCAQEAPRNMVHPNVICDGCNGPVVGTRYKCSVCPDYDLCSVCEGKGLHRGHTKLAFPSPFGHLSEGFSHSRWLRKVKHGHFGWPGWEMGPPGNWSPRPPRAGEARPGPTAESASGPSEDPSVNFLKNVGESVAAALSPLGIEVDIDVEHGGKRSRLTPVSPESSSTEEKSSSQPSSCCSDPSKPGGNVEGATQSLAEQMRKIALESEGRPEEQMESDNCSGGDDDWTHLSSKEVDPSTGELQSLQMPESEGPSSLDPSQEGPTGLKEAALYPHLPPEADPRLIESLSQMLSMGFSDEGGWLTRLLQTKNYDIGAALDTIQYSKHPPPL
Assay: Oligomerization activity of p62 protein by immunoblotting (Experimental Example 1)
Format: cell-based
Settings: HEK293 cell lysate treated with test compounds at room temperature for 2 hours; immunoblot, FIG. 2
Description: In order to evaluate the p62 protein oligomerization activity efficacy by the compounds (Examples 1-25), HEK293 cell line, which is human embryonic kidney-derived cell, was collected. As the representative compounds among the present compounds, the compounds of Examples 1, 2, 3, 5, 6, 7, 8, 9, 12, and 13 (Example 10 (YT-5-1), Example 11 (YT-5-2), Example 12 (YT 5-7), Example 13 (YT 5-8), Example 15 (YT-8-7), Example 16 (YT-8-8), Example 17 (YTK-107), Example 18 ([…]), Example 20 (ATB10041), Example 21 (ATB10042), Example 22 (ATB10043), Example 23 (ATB10044), Example 24 (ATB10045) and Example 25 (ATB10046)) were selected. In order to measure intracellular p62 protein activation and oligomerization according to the treatment with these selected representative compounds, the respective cells were dispensed into a 100 pi dish. The cells were collected after further culturing for 24 hours so that the cells were completely attached to the surface of the plate. 100 ul of lysis buffer (20 mM Tris, pH 7.4), 150 mM NaCl, 1% Triton X-100, 2 mM NaF, 2 mM EDTA, 2 mM beta-glycerophosphate, 5 mM sodium orthovanadate, 1 mM PMSF, leupeptin, aprotinin) were injected into each sample and the cells were lysed. Based on the measured total protein concentration, each sample was treated with test compounds at room temperature for 2 hours, and then a sample buffer was added and allowed to react at 95° C. for 10 minutes. 25 ul was taken from the samples after the reaction, and dispensed into each well of acrylamide gel, and then immunoblotting was performed.

Compound | p62 protein oligomerization activity (monomer, oligomers and high-molecular aggregates)
OCCNCc1cccc(OCc2ccc(F)cc2)c1 [YT 5-8, 2-((3-((4-fluorobenzyl)oxy)benzyl)amino)ethan-1-ol] | increasing the p62 protein oligomerization activity
N=C(N)NCCNCc1cccc(OCc2ccccc2)c1 [YTK-107, 1-(2-((3-(benzyloxy)benzyl)amino)ethyl)guanidine] | increasing the p62 protein oligomerization activity
OCCNCc1cccc(OCc2ccc(Cl)cc2)c1 [YT 5-7, 2-((3-((4-chlorobenzyl)oxy)benzyl)amino)ethan-1-ol] | increasing the p62 protein oligomerization activity
OCCNCc1ccc(OCc2ccc(Cl)cc2)c(OCc2ccc(Cl)cc2)c1 [YT-5-1, 2-((3,4-bis((4-chlorobenzyl)oxy)benzyl)amino)ethan-1-ol] | increasing the p62 protein oligomerization activity
OCCNCc1ccc(OCc2ccc(F)cc2)c(OCc2ccc(F)cc2)c1 [YT-5-2, 2-((3,4-bis((4-fluorobenzyl)oxy)benzyl)amino)ethan-1-ol] | increasing the p62 protein oligomerization activity
N=C(N)NCCNCc1cccc(OCCc2ccccc2)c1 [YTK-207] | increasing the p62 protein oligomerization activity

Reference: patent US12427346B2, “P62 ligand compound, and composition for preventing, ameliorating or treating proteinopathies comprising the same” (AUTOTAC INC., priority 2018, dated 2025)
